Assay results published in US5292892A, “Anti-bacterial compound and pharmaceutical compositions thereof” (Sankyo Company, Limited, priority 1991, dated 1994).
Values after ≈ are worked out from the molar mass of the structure shown.

Key:
[1] = test system: Enterobacter cloacae 963; test: MIC, agar medium dilution method; format: cell-based; conditions: nutrient agar
Protocol: (§1) The minimum inhibitory concentration (MIC) of thiomarinol, given as μg/ml, against gram-positive and gram-negative bacteria was determined by the agar medium dilution method, using a nutrient agar medium (Product of Eiken Chemical Co., Ltd.).

[2] = test system: Enterococcus faecalis 681; test: MIC, agar medium dilution method; format: cell-based; conditions: nutrient agar
Protocol: as §1

[3] = test system: Escherichia coli 609; test: MIC, agar medium dilution method; format: cell-based; conditions: nutrient agar
Protocol: as §1

[4] = test system: Escherichia coli NHIJ; test: MIC, agar medium dilution method; format: cell-based; conditions: nutrient agar
Protocol: as §1

[5] = test system: Klebsiella pneumoniae 806; test: MIC, agar medium dilution method; format: cell-based; conditions: nutrient agar
Protocol: as §1

[6] = test system: Klebsiella pneumoniae 846 (R); test: MIC, agar medium dilution method; format: cell-based; conditions: nutrient agar, (R) strain
Protocol: as §1

[7] = test system: Morganella morganii 1510; test: MIC, agar medium dilution method; format: cell-based; conditions: nutrient agar
Protocol: as §1

[8] = test system: Proteus vulgaris 1420; test: MIC, agar medium dilution method; format: cell-based; conditions: nutrient agar
Protocol: as §1

[9] = test system: Pseudomonas aeruginosa 1001; test: MIC, agar medium dilution method; format: cell-based; conditions: nutrient agar
Protocol: as §1

[10] = test system: Pseudomonas aeruginosa N07; test: MIC, agar medium dilution method; format: cell-based; conditions: nutrient agar
Protocol: as §1

[11] = test system: Salmonella enteritidis; test: MIC, agar medium dilution method; format: cell-based; conditions: Salmonella enterica, nutrient agar
Protocol: as §1

[12] = test system: Serratia marcescens 1184; test: MIC, agar medium dilution method; format: cell-based; conditions: nutrient agar
Protocol: as §1

[13] = test system: Staphylococcus aureus 209P; test: MIC, agar medium dilution method; format: cell-based; conditions: nutrient agar
Protocol: as §1

[14] = test system: Staphylococcus aureus 535 (MRSA); test: MIC, agar medium dilution method; format: cell-based; conditions: nutrient agar
Protocol: as §1

[15] = test system: Staphylococcus aureus 56R; test: MIC, agar medium dilution method; format: cell-based; conditions: nutrient agar
Protocol: as §1

[16] = test system: Mycoplasma bovis Donetta; test: Antimycoplasmal activity (MIC); format: cell-based; conditions: Mycoplasmopsis bovis, 120 h; Chanock medium, 20% horse serum; 37° C., 5 days, slightly aerobic; 0.005 ml of 10^5 CFU/ml
[17] = test system: Mycoplasma gallisepticum PG-31; test: Antimycoplasmal activity (MIC); format: cell-based; conditions: Mycoplasmoides gallisepticum, PG31, 120 h; Chanock medium, 20% horse serum; 37° C., 5 days, slightly aerobic; 0.005 ml of 10^5 CFU/ml
[18] = test system: Mycoplasma gallisepticum S-6; test: Antimycoplasmal activity (MIC); format: cell-based; conditions: Mycoplasmoides gallisepticum, S6, 120 h; Chanock medium, 20% horse serum; 37° C., 5 days, slightly aerobic; 0.005 ml of 10^5 CFU/ml
[19] = test system: Mycoplasma gallisepticum K-1; test: Antimycoplasmal activity (MIC); format: cell-based; conditions: Mycoplasmoides gallisepticum, K1, 120 h; Chanock medium, 20% horse serum; 37° C., 5 days, slightly aerobic; 0.005 ml of 10^5 CFU/ml
[20] = test system: Mycoplasma synoviae WVU1853; test: Antimycoplasmal activity (MIC); format: cell-based; conditions: Mycoplasmopsis synoviae, WVU1853, 120 h; Frey medium, 12% swine serum; 37° C., 5 days, slightly aerobic; 0.005 ml of 10^5 CFU/ml
Protocol: (§2) Following the procedure as described below, the activity of thiomarinol was assayed against various species of mycoplasma.
M. synoviae Frey medium [prepared as de-
scribed in Am. J. Vet. Res., --29,
(§3) 37° C., 5 days, slightly aerobic
(§4) (BBL gas pack method [cultivation
(§5) in disposable CO2 generator from
(§6) Becton Dickinson Microbiology
(§7) Systems, Cockeysville, MD 2103

[21] = test system: Mycoplasma hyosynoviae S-16; test: Antimycoplasmal activity (MIC); format: cell-based; conditions: S16, 120 h, Mucin PPLO agar medium, 15% horse serum, 37° C., 5 days, slightly aerobic, 0.005 ml of 10^5 CFU/ml
Protocol: as §2
M. hyosynoviae Mucin PPLO* agar medium (15%
horse serum supplemented)
as §3, §4, §5, §6, §7
*PPLO ( -- Pleuro -- Pneumonia- -- Like
PPLO Broth without CV (Difco)
Mucin bacteriological (Difco)
Agar Noble (Difco) 12 g
25% Fresh yeast extract 50 ml

[22] = Solubility; format: physicochemical

With `C/C(=C\C(=O)OCCCCCCCC(=O)Nc1c2sscc-2[nH]c1=O)C(O)C1OCC(C/C=C/C(C)C(C)O)C(O)C1O` (single isomer, unassigned) [thiomarinol] the MIC [1] was 1.5 µg/mL (≈ 2.34 µM), the MIC [2] was 0.02 µg/mL (≈ 0.0312 µM) and the MIC [3] was 0.8 µg/mL (≈ 1.25 µM). The MIC [4] was 0.8 µg/mL (≈ 1.25 µM), the MIC [5] was 0.8 µg/mL (≈ 1.25 µM) and the MIC [6] was 0.2 µg/mL (≈ 0.312 µM). It also gave an MIC [7] of 6.2 µg/mL (≈ 9.68 µM), an MIC [8] of 0.05 µg/mL (≈ 0.078 µM) and an MIC [9] of 0.2 µg/mL (≈ 0.312 µM). For the same compound, the MIC [10] was 0.4 µg/mL (≈ 0.624 µM), the MIC [11] was 0.4 µg/mL (≈ 0.624 µM) and the MIC [12] was 3.1 µg/mL (≈ 4.84 µM). It also gave an MIC [13] of no more than 0.01 µg/mL, an MIC [14] of no more than 0.01 µg/mL and an MIC [15] of no more than 0.01 µg/mL. For the same compound, the MIC [16] was 0.0125 µg/mL (≈ 0.0195 µM), the MIC [17] was 0.05 µg/mL (≈ 0.078 µM) and the MIC [18] was 0.1 µg/mL (≈ 0.156 µM). For the same compound, the MIC [19] was 0.05 µg/mL (≈ 0.078 µM), the MIC [20] was less than 0.006 µg/mL and the MIC [21] was 0.025 µg/mL (≈ 0.039 µM). The Solubility ([22]; alcohols (methanol, ethanol, propanol, butanol), dimethyl sulfoxide, dimethylformamide, chloroform, ethyl acetate, acetone, ethyl ether) was “Soluble”, the Solubility ([22]; hexane) was “insoluble” and the Solubility ([22]; water) was “insoluble”.
